Results on two compounds are retold here after patent US20070254930A1, “Oral Preparation Having Improved Bioavailability” (DONG WHA PHARM. IND. CO., LTD., priority 2004, published 2007).

The nature of series [1]: pH-dependent water solubility. It counts as physicochemical. Conditions: pH about pH 5 or more.
Series [2] in a line: Gelation experiment: viscosity of aqueous solutions. The class given is physicochemical. Conditions: for Viscosity: Brookfield DV-II+, 10° C. ± 0.3° C., spindle S 51. The protocol: The following test was carried out to evaluate the degree of gelation depending on the concentration of 2 methanesulfonic acid salt of the compound of Chemical Formula 1 according to the present invention.
200 mg of 2 methanesulfonic acid salt of the compound of Chemical Formula 1 was dissolved in 10 mL of water (20 mg/mL). The solution was diluted with water to give 20, 10, 5, and 2.5 mg/mL. Viscosity of these diluted solutions was measured according to the following test conditions described in Table 1, and also the results for the test are shown in Table 1.

As to `Cc1nc(-c2ccc(OCCCCCOc3ccc(C(=N)NO)cc3)cc2)c(C(C)C)s1` [compound of Chemical Formula 1, N-hydroxy-4-{5-[4-(5-isopropyl-2-methyl-1,3-thiazol-4-yl)phenoxy]pentoxy}-benzamidine], the “solubility in aqueous condition (in words)” value in series [1] is listed as “practically insoluble”.

In the case of `CS(=O)(=O)O.CS(=O)(=O)O.Cc1nc(-c2ccc(OCCCCCOc3ccc(C(=N)NO)cc3)cc2)c(C(C)C)s1` [N-hydroxy-4-{5-[4-(5-isopropyl-2-methyl-1,3-thiazol-4-yl)phenoxy]pentoxy}-benzamidine 2 methanesulfonic acid salt], the Viscosity in series [2] (2.5 mg/ml in water) amounted to 6.34 cP; in series [2] (5 mg/ml in water), 11.9 cP; in series [2] (10 mg/ml in water), 20.0 cP; in series [2] (20 mg/ml in water), 78.9 cP. Besides, the “gelation property in aqueous solution (in words)” value in series [2] (aqueous solution) is recorded as “high gelation property”.
